The results in this text go back to US20090240058A1, “Activator for Peroxisome Proliferator-Activating Receptor Delta” (priority 2005, published 2009).

What is called melting point is the temperature of the solid-liquid transition.

The target in data set [1] is T1, hPPAR α (LBD) (Homo sapiens, UniProt Q07869).
T1 construct: A receptor expression plasmid (pSG5-GAL4-hPPAR α or γ or δ (LBD)); GAL4 (fusion partner); expressed in transfected cells; host or cells: CV-1 cells (ATCC)
T1 sequence (Q07869 239-466 limits assumed): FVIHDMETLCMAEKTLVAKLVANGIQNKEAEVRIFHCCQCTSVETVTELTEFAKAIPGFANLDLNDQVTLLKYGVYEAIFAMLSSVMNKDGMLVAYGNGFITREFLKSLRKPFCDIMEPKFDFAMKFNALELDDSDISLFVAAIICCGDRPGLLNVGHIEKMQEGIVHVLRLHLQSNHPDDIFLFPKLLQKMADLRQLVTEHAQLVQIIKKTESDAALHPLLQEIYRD
Put plainly: GAL4-hPPAR α (LBD) luciferase reporter transactivation in CV-1 cells. Format: cell-based. Details: key: IA: inactive. Particulars: relative to 100% of compound of Example 2 of Patent Publication 4 at 10^−6 M. Here is the method:
(§1) A receptor expression plasmid (pSG5-GAL4-hPPAR α or γ or δ (LBD)), a luciferase expression plasmid (pUC8-MH100x4-TK-Luc) and β-galactosidase expression plasmid (pCMX-β-GAL) (Kliewer, S. A., et. al., (1992) Nature, 358:771-774) are transfected into CV-1 cells (ATCC). After gene transfer utilizing a lipofection reagent DMRIE-C or Lipofectamin 2000 (Invitrogen), it is incubated for 42 hours in the presence of the test compound. Then, the luciferase activity and β-GAL activity are measured on the soluble cells. The luciferase activity is calibrated by the β-GAL activity. A relative ligand activity is calculated for each of the PPARα, γ and δ under the following conditions: a relative activity of PPAR α is calculated in consideration of a luciferase activity (assigned to 100%) of cells treated with the compound described in Example 2 of the aforementioned Patent Publication 4 (PPARα-selective agonist); a relative activity of PPAR γ is calculated in consideration of a luciferase activity (assigned to 100%) cells treated with Rosiglitazone; and a relative activity of PPAR δ is calculated in consideration of a luciferase activity (assigned to 100%) of cells treated with GW-501516. See the below-described Examples 22 and 23.
(§2) The PPARδ activating effects of test compounds (compounds of Examples) were measured by the following method:
as §1, with “(pUC8-MH100x-4-TK-Luc)” for “(pUC8-MH100x4-TK-Luc)”, “approx. 40” for “42”, “PPAR α,” for “PPARα,”, “GW-501516.” for “GW-501516. See the below-described Examples 22 and 23.”
(§3) The experimental results Table 28 were obtained by procedures similar to the procedures for pharmacological experimental described in Example 22.

For data set [2], the target named is T2, hPPAR δ (LBD) (Homo sapiens, UniProt Q03181).
T2 construct: A receptor expression plasmid (pSG5-GAL4-hPPAR α or γ or δ (LBD)); GAL4 (fusion partner); expressed in transfected cells; host or cells: CV-1 cells (ATCC)
T2 sequence (Q03181 211-439 limits assumed): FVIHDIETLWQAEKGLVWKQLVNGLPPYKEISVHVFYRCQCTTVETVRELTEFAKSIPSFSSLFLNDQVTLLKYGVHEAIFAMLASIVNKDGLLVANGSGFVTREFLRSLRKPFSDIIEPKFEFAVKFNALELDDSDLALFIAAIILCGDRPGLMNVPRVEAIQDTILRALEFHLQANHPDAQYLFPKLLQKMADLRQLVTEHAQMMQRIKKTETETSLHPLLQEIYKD
Put plainly: GAL4-hPPAR δ (LBD) luciferase reporter transactivation in CV-1 cells. The class given is cell-based. As to conditions: relative to 100% of GW-501516 at 10^−7 M. As to the method:
For determining PPARδ activating effect of the compounds according to the invention, PPARδ activating effects of test compounds (compounds of Examples) were measured by the following method:
as §1, §2
as §1, with “(pUC8-MH100x-4-TK-Luc)” for “(pUC8-MH100x4-TK-Luc)”, “approx. 40” for “42”, “PPAR α,” for “PPARα,”, “GW-501516.” for “GW-501516. See the below-described Examples 22 and 23.”
as §3
On the technique in general: A reporter such as luciferase makes a cellular process visible.

Data set [3] deals with T3, hPPAR γ (LBD) (Homo sapiens, UniProt P37231).
T3 construct: A receptor expression plasmid (pSG5-GAL4-hPPAR α or γ or δ (LBD)); GAL4 (fusion partner); expressed in transfected cells; host or cells: CV-1 cells (ATCC)
T3 sequence (P37231 238-503 limits assumed): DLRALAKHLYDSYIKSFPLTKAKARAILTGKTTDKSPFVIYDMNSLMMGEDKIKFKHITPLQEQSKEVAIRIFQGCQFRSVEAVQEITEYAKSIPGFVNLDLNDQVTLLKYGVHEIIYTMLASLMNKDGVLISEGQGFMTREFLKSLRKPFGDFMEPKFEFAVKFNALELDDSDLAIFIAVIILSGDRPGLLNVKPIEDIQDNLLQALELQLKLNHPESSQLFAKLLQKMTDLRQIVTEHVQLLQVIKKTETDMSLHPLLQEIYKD
The data set can be described thus: GAL4-hPPAR γ (LBD) luciferase reporter transactivation in CV-1 cells. The class given is cell-based. Details: key: IA: inactive. As to conditions: relative to 100% of Rosiglitazone at 10^−5 M. Here is the method: as §1, §2
as §1, with “(pUC8-MH100x-4-TK-Luc)” for “(pUC8-MH100x4-TK-Luc)”, “approx. 40” for “42”, “PPAR α,” for “PPARα,”, “GW-501516.” for “GW-501516. See the below-described Examples 22 and 23.”
as §3

[4] abbreviates: test compound 10^−7 M (Examples 5, 8 and 10).
The mark [5] stands for this setting: test compound 10^−7 M (Examples 8 and 10).
Where [6] appears, read: Table 28, test compound 10^−6 M.

Consider `Cc1cc(C(=O)CCc2cn(-c3ccc(C(F)(F)F)cc3)nc2C(C)C)ccc1OC(C)(C)C(=O)O` [Example 1, 2-[4-[3-[3-Isopropyl-1-(4-trifluoromethylphenyl)-1H-pyrazol-4-yl]propionyl]-2-methylphenoxy]-2-methylpropionic acid], for which, in data set [1] (test compound 10^−6 M), the “PPAR activity (%) α” value was found to be 62%. For the same compound, the “PPAR activity (%) δ” value in data set [2] (test compound 10^−6 M) is listed as 87%. For the same compound, in data set [3] (test compound 10^−6 M), the “PPAR activity (%) γ” value turned out to be 7%.

As for `Cc1cc(C(=O)CCc2cn(-c3ccc(C(F)(F)F)cc3)nc2C(C)C)ccc1OCC(=O)O` [Example 2, 4-[3-[3-Isopropyl-1-(4-trifluoromethylphenyl)-1H-pyrazol-4-yl]propionyl]-2-methylphenoxyacetic acid], in data set [1] (test compound 10^−6 M), the “PPAR activity (%) α” value is reported as “IA”. Also, the “PPAR activity (%) δ” value in data set [2] (test compound 10^−6 M) came out at 76%. In addition, in data set [3] (test compound 10^−6 M), the “PPAR activity (%) γ” value is given as “IA”.

For `Cc1ccc(-n2cc(CCC(=O)c3ccc(OC(C)(C)C(=O)O)c(C)c3)c(C(C)C)n2)nc1` [Example 3, 2-[4-[3-[3-Isopropyl-1-(5-methylpyridin-2-yl)-1H-pyrazol-4-yl]propionyl]-2-methylphenoxy]-2-methylpropionic acid], in data set [1] (test compound 10^−6 M), the “PPAR activity (%) α” value came to 131%. The “PPAR activity (%) δ” value in data set [2] (test compound 10^−6 M) was 72%. Moreover, the “PPAR activity (%) γ” value in data set [3] (test compound 10^−6 M) turned out to be 30%.

Turning to `Cc1cc(C(=O)CCc2cc(-c3ccc(C(F)(F)F)cc3)nn2C(C)C)ccc1OC(C)(C)C(=O)O` [Example 5, 2-[4-[3-[1-Isopropyl-3-(4-trifluoromethylphenyl)-1H-pyrazol-5-yl]propionyl]-2-methylphenoxy]-2-methylpropionic acid], the “PPAR activity (%) α” value in data set [1] (test compound 10^−6 M) amounted to 109%. Further, the “PPAR activity (%) δ” value in data set [2] (setting [4]) worked out at 93%. Moreover, the “PPAR activity (%) γ” value in data set [3] (test compound 10^−6 M) is 15%.

`Cc1cc(C(=O)CCc2cc(-c3ccc(C(F)(F)F)cc3)nn2C(C)C)ccc1OCC(=O)O` [Example 6, [4-[3-[1-Isopropyl-3-(4-trifluoromethylphenyl)-1H-pyrazol-5-yl]propionyl]-2-methylphenoxy]acetic acid]: the melting point fell in the range of 160 to 163 °C. In addition, in data set [1] (test compound 10^−6 M), the “PPAR activity (%) α” value is given as “IA”. In addition, the “PPAR activity (%) δ” value in data set [2] (test compound 10^−6 M) came out at 86%. For the same compound, the “PPAR activity (%) γ” value in data set [3] (test compound 10^−6 M) is given as “IA”.

On to `C=C(CCc1cc(-c2ccc(C(F)(F)F)cc2)nn1C(C)C)c1ccc(OC(C)(C)C(=O)O)c(C)c1` [Example 7, 2-[4-[1-[2-[1-Isopropyl-3-(4-trifluoromethylphenyl)-1H-pyrazol-5-yl]ethyl]vinyl]-2-methylphenoxy]-2-methylpropionic acid], for which, in data set [1] (test compound 10^−6 M), the “PPAR activity (%) α” value is 84%. The “PPAR activity (%) δ” value in data set [2] (test compound 10^−6 M) is recorded as 72%. The “PPAR activity (%) γ” value in data set [3] (test compound 10^−6 M) came to 38%.

With `Cc1cc(C(C)CCc2cc(-c3ccc(C(F)(F)F)cc3)nn2C(C)C)ccc1OC(C)(C)C(=O)O` (stereo not shown) [Example 8, 2-[4-[3-[1-Isopropyl-3-(4-trifluoromethylphenyl)-1H-pyrazol-5-yl]-1-methylpropyl]-2-methylphenoxy]-2-methylpropionic acid], the “PPAR activity (%) α” value in data set [1] (setting [5]) is recorded as 89%. Besides, the “PPAR activity (%) δ” value in data set [2] (setting [4]) is 45%. For the same compound, in data set [3] (test compound 10^−6 M), the “PPAR activity (%) γ” value came to 61%.

For `Cc1cc(C(=O)CCc2cc(-c3ccc(C(F)(F)F)cc3)nn2C(C)C)ccc1OC(C)C(=O)O` (stereo not shown) [Example 9, 2-[4-[3-[1-Isopropyl-3-(4-trifluoromethylphenyl)-1H-pyrazol-5-yl]propionyl]-2-methylphenoxy]propionic acid], the “PPAR activity (%) α” value in data set [1] (test compound 10^−6 M) is 73%. In data set [2] (test compound 10^−6 M), the “PPAR activity (%) δ” value amounted to 59%. Moreover, the “PPAR activity (%) γ” value in data set [3] (test compound 10^−6 M) was 29%.

For `CCCCCCn1nc(-c2ccc(C(F)(F)F)cc2)cc1CCC(=O)c1ccc(OC(C)(C)C(=O)O)c(C)c1` [Example 10, 2-[4-[3-[1-Hexyl-3-(4-trifluoromethylphenyl)-1H-pyrazol-5-yl]propionyl]-2-methylphenoxy]-2-methylpropionic acid], the “PPAR activity (%) α” value in data set [1] (setting [5]) amounted to 77%. Moreover, the “PPAR activity (%) δ” value in data set [2] (setting [4]) came to 53%. In addition, in data set [3] (test compound 10^−6 M), the “PPAR activity (%) γ” value was found to be 54%.

As to `Cc1cc(C(=O)CCc2sc(-c3ccc(C(F)(F)F)cc3)cc2C)ccc1OC(C)(C)C(=O)O` [Example 12, 2-Methyl-2-[2-methyl-4-[3-[3-methyl-5-(4-trifluoromethylphenyl)thiophen-2-yl]propionyl]phenoxy]-propionic acid], the “PPAR activity (%) α” value in data set [1] (test compound 10^−6 M) stood at 51%. Further, the “PPAR activity (%) δ” value in data set [2] (test compound 10^−6 M) was found to be 94%. For the same compound, in data set [3] (test compound 10^−6 M), the “PPAR activity (%) γ” value was 29%.

Turning to `Cc1cc(C(=O)CCc2sc(-c3ccc(C(F)(F)F)cc3)cc2C)ccc1OCC(=O)O` [Example 13, [2-Methyl-4-[3-[3-methyl-5-(4-trifluoromethylphenyl)thiophen-2-yl]propionyl]phenoxy]acetic acid], the “PPAR activity (%) α” value in data set [1] (test compound 10^−6 M) is on record as “IA”. Besides, the “PPAR activity (%) δ” value in data set [2] (test compound 10^−6 M) stood at 82%. Besides, the “PPAR activity (%) γ” value in data set [3] (test compound 10^−6 M) is “IA”.

Consider `CCCCCCn1nc(-c2ccc(C)cc2)cc1CCC(=O)c1ccc(OC(C)(C)C(=O)O)c(C)c1` [Example 14, 2-[4-[3-[1-Hexyl-3-(4-methylphenyl)-1H-pyrazol-5-yl]propionyl]-2-methylphenoxy]-2-methylpropionic acid], for which the “PPAR activity (%) α” value in data set [1] (setting [6]) turned out to be 123%. Also, in data set [2] (setting [6]), the “PPAR activity (%) δ” value is 94%. For the same compound, the “PPAR activity (%) γ” value in data set [3] (setting [6]) turned out to be 48%.

Turning to `Cc1cc(C(=O)CCc2sc(-c3ccc(C(F)(F)F)cc3)cc2C(C)C)ccc1OC(C)(C)C(=O)O` [Example 15, 2-[4-[3-[3-Isopropyl-5-(4-trifluoromethylphenyl)thiophen-2-yl]propionyl]-2-methylphenoxy]-2-methylpropionic acid], the “PPAR activity (%) α” value in data set [1] (setting [6]) stood at 99%. Also, in data set [2] (setting [6]), the “PPAR activity (%) δ” value stood at 85%. Besides, the “PPAR activity (%) γ” value in data set [3] (setting [6]) is recorded as 11%.

Consider `CCCCCCc1cc(-c2ccc(C)cc2)sc1CCC(=O)c1ccc(OC(C)(C)C(=O)O)c(C)c1` [Example 17, 2-[4-[3-[3-Hexyl-5-(4-methylphenyl)thiophen-2-yl]propionyl]-2-methylphenoxy]-2-methylpropionic acid], for which the “PPAR activity (%) α” value in data set [1] (setting [6]) came out at 109%. Also, in data set [2] (setting [6]), the “PPAR activity (%) δ” value was 76%. The “PPAR activity (%) γ” value in data set [3] (setting [6]) was determined as 35%.
